Data as given in US20190119642A1, “METHODS AND COMPOSITIONS RELATING TO HEMATOPOIETIC STEM CELL EXPANSION” (CHILDREN'S MEDICAL CENTER CORPORATION, priority 2016, published 2019).

Tested on: CD34+ enriched cord blood cells
Assay: Ex vivo expansion of CD34+ enriched cord blood cells, 12 days in culture with small molecules, flow cytometry
Conditions: for percentage and total number of Lin-CD34+ and Lin- cells: CD34+ cord blood cells cultured in vitro 12 days, FIGS. 21-23
Method: CD34+ enriched cord blood cells were obtained from AllCells. Ten thousand cells were cultured in StemSpan SFEMII containing recombinant human SCF, TPO, IL-3 and FLT3L (all at 100 ng/ml). Cells were cultured with cytokine containing media with the vehicle control (DMSO) or the indicated small molecules. Media was changed every three days. On day twelve, cells were harvested, counted, and analyzed by flow cytometry.
Plots show samples previously gated through live (PI-) and singlet gates. Gating strategy for immunophenotypic hematopoietic stem cells (HSCs) defined as Lin−CD34+CD45RA−CD90+ and Lin−CD34+CD45RA−CD90+CD49f+EPCR+ HSCs is shown. Percentages indicate the frequency of the parent (previous) gate.
Plots show samples previously gated through live (PI-) and singlet gates. Gating strategy for immunophenotypic hematopoietic stem cells (HSCs) as Lin−CD34+CD45RA−CD90+ and Lin−CD34+CD45RA−CD90+CD49f+EPCR+ are shown. Percentages indicate the frequency of cells in the parent population.
Depicted is the total number of live cells after 12 days of culturing 10,000 CD34+ enriched cord blood cells in the indicated conditions.
CD34+ cord blood cells were cultured in vitro in the presence of different combinations of compounds as described herein.

Row | Compound | percentage and total number of Lin-CD34+ and Lin- cells | percentage and total number of Lin-CD45RA-CD90+ HSCs (CD34+ cord blood cells, 12 days culture, FIG. 24, 25) | percentage of Lin-CD45RA-CD90+CD49f+EPCR+ HSCs (CD34+ cord blood cells, 12 days culture, FIG. 26, 27)
1 | C[S+]([O-])c1ccc(-c2nc(-c3ccc(F)cc3)c(-c3ccncc3)[nH]2)cc1 (centres unmarked) [A, A83-01] | increased | – | –
2 | CC(C)n1cnc2c(NCCc3ccc(O)cc3)nc(-c3csc4ccccc34)nc21 [SR1, StemRegenin 1] | increased | – | –
3 | Nc1cccc2c1C(=O)N(C1CCC(=O)NC1=O)C2=O (centres unmarked) [POM, pomalidomide] | increased | increased | increased
